14 compounds from patent US11339130B1 (Blade Therapeutics, Inc., priority 2016, dated 2022) can be followed below.

Test [1] deals with Calpain activity in SH-SY5Y cells (SBDP-150). Kind of test: SH-SY5Y Spectrin western blot assay (SBDP-150 breakdown product, A23187-induced). It is filed as cell-based. The settings on record: Homo sapiens; SH-SY5Y cells, A23187-induced SBDP-150, western blot; read-out: SH-SY5Y Spectrin IC50.
Test [2] addresses T1, Human Calpain 9/NS1 (Homo sapiens, UniProt O14815).
T1 sequence (O14815 1-690): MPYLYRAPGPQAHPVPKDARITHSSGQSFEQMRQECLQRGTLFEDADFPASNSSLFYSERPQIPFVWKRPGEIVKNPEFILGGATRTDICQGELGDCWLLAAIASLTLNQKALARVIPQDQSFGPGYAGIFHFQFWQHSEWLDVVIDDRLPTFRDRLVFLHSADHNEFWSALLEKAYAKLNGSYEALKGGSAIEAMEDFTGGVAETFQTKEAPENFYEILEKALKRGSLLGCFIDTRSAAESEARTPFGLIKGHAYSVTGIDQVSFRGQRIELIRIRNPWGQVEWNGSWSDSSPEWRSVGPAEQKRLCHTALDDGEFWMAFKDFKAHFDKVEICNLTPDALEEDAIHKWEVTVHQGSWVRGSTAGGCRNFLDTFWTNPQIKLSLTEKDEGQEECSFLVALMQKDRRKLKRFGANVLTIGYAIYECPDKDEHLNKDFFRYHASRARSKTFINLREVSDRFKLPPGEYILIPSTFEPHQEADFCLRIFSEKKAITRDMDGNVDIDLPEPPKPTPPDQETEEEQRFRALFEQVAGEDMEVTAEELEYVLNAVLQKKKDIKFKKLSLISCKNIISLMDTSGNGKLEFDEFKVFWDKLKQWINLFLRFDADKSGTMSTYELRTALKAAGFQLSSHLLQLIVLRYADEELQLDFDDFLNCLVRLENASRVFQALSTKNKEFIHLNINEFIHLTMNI
T1 sequence (P04632 1-268 partner): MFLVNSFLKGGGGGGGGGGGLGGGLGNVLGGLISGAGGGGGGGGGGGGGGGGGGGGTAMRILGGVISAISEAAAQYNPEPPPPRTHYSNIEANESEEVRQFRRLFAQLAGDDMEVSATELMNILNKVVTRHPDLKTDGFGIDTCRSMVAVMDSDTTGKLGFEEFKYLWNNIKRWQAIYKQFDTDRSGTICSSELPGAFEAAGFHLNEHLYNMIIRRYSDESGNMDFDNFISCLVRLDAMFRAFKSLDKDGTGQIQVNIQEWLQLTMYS
Kind of test: Calpain inhibition continuous fluorescence (FRET) assay, Human Calpain 9/NS1. It is filed as biochemical. The settings on record: read-out: Human Calpain 9/NS1 IC50. Put shortly:
(§1)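 Continuous FRET read (ex 490/em 520 nm, 10 min) of calpain 1, 2 or 9 cleaving an internally quenched 5-FAM peptide, triggered by substrate with CaCl2 after enzyme–inhibitor incubation at ambient 25 °C, pH 7.5 Tris/NaCl/DTT buffer. IC50 from initial rates (1-5 min) via 4-parameter fit.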

The target of test [3] is T2, Human Calpain 2/NS1 (Homo sapiens, UniProt P17655).
T2 sequence (P17655 1-700): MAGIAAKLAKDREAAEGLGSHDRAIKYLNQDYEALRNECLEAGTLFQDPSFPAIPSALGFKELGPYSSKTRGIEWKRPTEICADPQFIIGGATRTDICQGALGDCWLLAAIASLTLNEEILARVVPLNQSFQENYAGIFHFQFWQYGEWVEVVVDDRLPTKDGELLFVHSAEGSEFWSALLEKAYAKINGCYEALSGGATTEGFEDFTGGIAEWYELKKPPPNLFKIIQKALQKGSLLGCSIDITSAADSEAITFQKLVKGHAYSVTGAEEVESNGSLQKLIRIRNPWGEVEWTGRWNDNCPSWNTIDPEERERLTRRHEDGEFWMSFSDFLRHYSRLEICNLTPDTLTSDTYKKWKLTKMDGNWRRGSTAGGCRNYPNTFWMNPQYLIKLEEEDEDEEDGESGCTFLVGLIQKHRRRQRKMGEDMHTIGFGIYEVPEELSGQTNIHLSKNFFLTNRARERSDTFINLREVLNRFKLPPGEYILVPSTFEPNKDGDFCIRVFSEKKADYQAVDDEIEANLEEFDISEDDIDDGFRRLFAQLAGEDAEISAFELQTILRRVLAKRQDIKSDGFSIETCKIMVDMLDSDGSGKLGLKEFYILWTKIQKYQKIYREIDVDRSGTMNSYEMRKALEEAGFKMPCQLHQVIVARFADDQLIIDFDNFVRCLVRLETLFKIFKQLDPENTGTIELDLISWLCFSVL
T2 sequence (P04632 1-268 partner): T1 sequence (P04632 1-268 partner)
Kind of test: Calpain inhibition continuous fluorescence (FRET) assay, Human Calpain 2/NS1. The settings on record: read-out: Human Calpain 2/NS1 IC50. It is filed as biochemical. The gist of the method:
as §1

Test [4] deals with T3, Human Calpain 1/NS1 (Homo sapiens, UniProt P07384).
T3 sequence (P07384 1-714): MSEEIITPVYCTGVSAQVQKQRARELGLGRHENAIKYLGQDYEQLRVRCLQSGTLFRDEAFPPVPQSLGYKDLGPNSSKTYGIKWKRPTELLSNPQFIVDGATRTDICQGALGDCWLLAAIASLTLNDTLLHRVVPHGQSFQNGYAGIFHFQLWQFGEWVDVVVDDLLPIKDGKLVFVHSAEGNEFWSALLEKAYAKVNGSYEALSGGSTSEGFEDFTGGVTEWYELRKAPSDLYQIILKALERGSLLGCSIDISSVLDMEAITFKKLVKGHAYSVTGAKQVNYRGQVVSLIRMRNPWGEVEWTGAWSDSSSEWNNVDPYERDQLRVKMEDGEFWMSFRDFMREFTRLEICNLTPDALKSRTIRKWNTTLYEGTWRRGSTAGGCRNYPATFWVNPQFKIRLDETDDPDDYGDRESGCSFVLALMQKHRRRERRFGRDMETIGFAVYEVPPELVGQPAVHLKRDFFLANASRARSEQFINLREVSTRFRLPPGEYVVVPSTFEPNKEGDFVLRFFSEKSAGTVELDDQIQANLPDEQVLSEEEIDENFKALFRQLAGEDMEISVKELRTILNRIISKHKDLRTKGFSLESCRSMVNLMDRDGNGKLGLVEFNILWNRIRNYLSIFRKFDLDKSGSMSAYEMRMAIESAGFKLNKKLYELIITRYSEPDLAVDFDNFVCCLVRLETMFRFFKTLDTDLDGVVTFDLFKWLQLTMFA
T3 sequence (P04632 1-268 partner): T1 sequence (P04632 1-268 partner)
Put plainly: Calpain inhibition continuous fluorescence (FRET) assay, Human Calpain 1/NS1. It is filed as biochemical. To be noted: read-out: Human Calpain 1/NS1 IC50. Put shortly:
as §1

As for `Cn1cc(C(=O)N[C@@H](Cc2ccccc2)C(=O)C(=O)NCCNC(=O)OC(C)(C)C)c(-c2ccccc2)n1` [Compound 340, Tert-butyl (S)-(2-(3-(1-methyl-3-phenyl-1H-pyrazole-4-carboxamido)-2-oxo-4-phenylbutanamido)ethyl)carbamate], the IC50 in test [1] is more than 25 µM; in test [2], less than 3 µM; in test [3], less than 3 µM; in test [4], less than 3 µM.

Consider `Cc1cc(C(=O)N[C@@H](Cc2ccccc2)C(=O)C(N)=O)n(-c2cccc(CNC(=O)OCc3ccccc3)c2)n1` [Compound 343, Benzyl (S)-(3-(5-((4-amino-3,4-dioxo-1-phenylbutan-2-yl)carbamoyl)-3-methyl-1H-pyrazol-1-yl)benzyl)carbamate], for which the IC50 is 10 to 25 µM in test [1], less than 3 µM in test [2], less than 3 µM in test [3] and less than 3 µM in test [4].

For the compound `Cc1cc(C(=O)NC(Cc2ccccc2)C(=O)C(N)=O)n(-c2ncccc2C)n1` (centres unmarked) [Compound 345, N-(4-amino-3,4-dioxo-1-phenylbutan-2-yl)-3-methyl-1-(3-methylpyridin-2-yl)-1H-pyrazole-5-carboxamide], the IC50 in test [1] was more than 25 µM; in test [2], more than 10 µM; in test [3], more than 10 µM; in test [4] it was more than 10 µM.

Consider `Cc1cccnc1-n1nc(C(=O)NC(Cc2ccccc2)C(=O)C(N)=O)cc1C` (centres unmarked) [Compound 346, N-(4-amino-3,4-dioxo-1-phenylbutan-2-yl)-5-methyl-1-(3-methylpyridin-2-yl)-1H-pyrazole-3-carboxamide], for which the IC50 in test [1] was more than 25 µM; in test [2], 3 to 10 µM; in test [3], 3 to 10 µM; in test [4], more than 10 µM.

With `NC(=O)C(=O)C(Cc1ccccc1)NC(=O)c1nsnc1Cl` (centres unmarked) [Compound 364, N-(4-amino-3,4-dioxo-1-phenylbutan-2-yl)-4-chloro-1,2,5-thiadiazole-3-carboxamide], the IC50 in test [1] is 10 to 25 µM; in test [2], less than 3 µM; in test [3] it was less than 3 µM; in test [4], less than 3 µM.

As to `O=C(NC1CC1)C(=O)C(Cc1ccccc1)NC(=O)c1nsnc1-c1ccccc1` (centres unmarked) [Compound 462, N-(4-(cyclopropylamino)-3,4-dioxo-1-phenylbutan-2-yl)-4-phenyl-1,2,5-thiadiazole-3-carboxamide], the IC50 was 10 to 25 µM in test [1], less than 3 µM in test [2], less than 3 µM in test [3] and less than 3 µM in test [4].

Regarding `Cn1cc(C(=O)NC(Cc2ccccc2)C(=O)C(N)=O)c(-c2ccc(C#N)nc2)n1` (centres unmarked) [Compound 481, N-(4-amino-3,4-dioxo-1-phenylbutan-2-yl)-3-(6-cyanopyridin-3-yl)-1-methyl-1H-pyrazole-4-carboxamide], the IC50 in test [1] is more than 25 µM; in test [2], less than 3 µM; in test [3] it was less than 3 µM; in test [4], less than 3 µM.

Take `Cn1cc(C(=O)NC(Cc2ccccc2)C(=O)C(N)=O)c(Cc2ccccc2)n1` (centres unmarked) [Compound 483, N-(4-amino-3,4-dioxo-1-phenylbutan-2-yl)-3-benzyl-1-methyl-1H-pyrazole-4-carboxamide]: the IC50 was more than 25 µM in test [1], less than 3 µM in test [2], 3 to 10 µM in test [3] and more than 10 µM in test [4].

For `Cn1cc(C(=O)NC(Cc2ccccc2)C(=O)C(N)=O)c(-c2cccc(C(F)(F)F)c2F)n1` (centres unmarked) [Compound 516, N-(4-amino-3,4-dioxo-1-phenylbutan-2-yl)-3-(2-fluoro-3-(trifluoromethyl)phenyl)-1-methyl-1H-pyrazole-4-carboxamide], the IC50 in test [1] is more than 25 µM; in test [2] it was less than 3 µM; in test [3] it was less than 3 µM; in test [4], less than 3 µM.

In the case of `C#CCOCc1ccc(-c2nn(C)cc2C(=O)N[C@@H](Cc2ccccc2)C(=O)CF)c(F)c1` [Compound 521, (S)—N-(4-fluoro-3-oxo-1-phenylbutan-2-yl)-3-(2-fluoro-4-((prop-2-yn-1-yloxy)methyl)phenyl)-1-methyl-1H-pyrazole-4-carboxamide], the IC50 in test [1] is 10 to 25 µM; in test [2], 3 to 10 µM; in test [3] it was less than 3 µM; in test [4], less than 3 µM.

In the case of `NC(=O)C(=O)C(Cc1ccccc1)NC(=O)c1cn(-c2cccc(F)c2)nc1-c1ccccc1` (centres unmarked) [Compound 528, N-(4-amino-3,4-dioxo-1-phenylbutan-2-yl)-1-(3-fluorophenyl)-3-phenyl-1H-pyrazole-4-carb oxamide], the IC50 in test [1] is more than 25 µM; in test [2], less than 3 µM; in test [3], less than 3 µM; in test [4], less than 3 µM.

As for `NC(=O)C(=O)C(Cc1ccccc1)NC(=O)c1cn(C(F)F)nc1-c1cc2ccccc2cn1` (centres unmarked) [Compound 608, N-(4-amino-3,4-dioxo-1-phenylbutan-2-yl)-1-(difluoromethyl)-3-(isoquinolin-3-yl)-1H-pyrazole-4-carboxamide], the IC50 in test [1] is more than 25 µM; in test [2] it was less than 3 µM; in test [3], less than 3 µM; in test [4], less than 3 µM.

Take `Cc1nc(-c2cccc3c2OCO3)c(C(=O)NC(Cc2ccccc2)C(=O)C(N)=O)o1` (centres unmarked) [Compound 609, N-(4-amino-3,4-dioxo-1-phenylbutan-2-yl)-4-(benzo[d][1,3]dioxol-4-yl)-2-methyloxazole-5-c arboxamide]: the IC50 in test [1] was less than 10 µM; in test [2], less than 3 µM; in test [3] it was less than 3 µM; in test [4] it was less than 3 µM.

As for `NC(=O)C(=O)C(Cc1ccccc1)NC(=O)c1cn(C(F)F)nc1-c1cnc2ccccc2c1` (centres unmarked) [Compound 610, N-(4-amino-3,4-dioxo-1-phenylbutan-2-yl)-1-(difluoromethyl)-3-(quinolin-3-yl)-1H-pyrazole-4-carboxamide], the IC50 in test [1] is less than 10 µM; in test [2], less than 3 µM; in test [3], less than 3 µM; in test [4] it was less than 3 µM.
